{"source": "patent US20200032249A1", "about": "“LABELING, ISOLATION, & ANALYSIS OF RNA FROM RARE CELL POPULATIONS” (priority 2017, published 2020)", "key": {"[1]": {"system": "MDA231 cells expressing CD/UPRT", "assay": "Flura-tagged mRNA immunoprecipitation from MDA231 CD/UPRT cells co-cultured with mouse 4T1 cells, RT-PCR", "type": "cell-based, human", "settings": "12 h, 100-1000 MDA231 cells to 10^6 4T1 cells", "protocol": "FIG. 1a-f. Labeling and purification of RNA by CD expression and 5-FC treatment. FIG. 1a—Schematic diagram showing RNA labeling using CD and 5-FC. FIG. 1b—Chemical reactions steps involved in the labeling of RNA using CD and 5-FC. The dotted arrow indicates the intermediary steps that are not shown. FIG. 1c Relative fold enrichment of mRNA isolated by Flura-tagging. 293T cells expressing CD or unlabeled controls were treated with 5-FC for the indicated times, labeled mRNAs were immunopurified using anti-BrdU antibody, and the levels of labeled mRNAs of the indicated genes relative to corresponding non-immunoprecipitated inputs normalized to immunopurified mRNAs from cells not expressing CD were quantified by RT-PCR. […] Cells were analyzed by immunofluorescence or harvested for RNA analysis. […] The fold enrichment of the indicated representative human genes over mouse housekeeping genes (mHPRT1 and mLDH1) was measured by RT-PCR (n=3±S.E.). […]\nNext, we determined whether this system could be used to isolate RNA specifically from cells of interest that were admixed with a large proportion of other cells. […] After 12 h of 5-FC addition, 5-FU-labeled mRNAs were immunoprecipitated, and the proportion of human and mouse mRNA for representative housekeeping genes were determined by reverse transcriptase-polymerase chain reaction (RT-PCR). […]"}, "293T cells": {"system": "293T cells", "assay": "anti-BrdU immunofluorescent staining of 293T cells treated with 5-FC or 5-FU", "type": "cell-based, human", "settings": "250 μM, 24 h", "protocol": "S. cerevisiae CD was exogenously expressed in human embryonic kidney 293T cells, and the cells were treated with 250 μM fluorocytosine (5-FC). This system is predicted to generate intracellular fluorouracil (5-FU), which is then incorporated into newly synthesized RNAs (FIG. 1a, b). Antibodies against bromodeoxyuridine (BrdU) can recognize BrdU and other halogenated uridines incorporated into nucleic acids (8).\nHuman embryonic kidney transformed with […] (293T) and human breast cancer MDA-MB-231 (MDA231) cells were cultured in DMEM High Glucose medium (Wheaton) supplemented with 10% Fetal Bovine Serum (Clontech, Catalog number 631106) supplemented with 2 mM L-Glutamine. All cell lines have been routinely tested for mycoplasma contamination. For the induction of CD or CD and UPRT, cells were treated with 1 μg/ml doxycycline for 24 h. For Fluorouracil tagging, cells were treated with 250 μM of 5-FC or 5-FU unless indicated. Where indicated, 125 μM thymine was added together with 5-FC. For the formation of stress granules, cells were treated with 500 μM Sodium Arsenite (Santa Cruz Biotechnologies, Catalog number SC-301816).\nCells were fixed with 4% paraformaldehyde for 10 min, permeabilized with 0.2% TritonX-100 for 10 min, blocked with 5% BSA for one hour at room temperature, prior to incubation with primary antibodies at 4° C. overnight, and secondary antibodies (Thermo Fisher anti-chicken antibody, Catalog number A-11039, Thermo Fisher anti-rat antibody, Catalog number A-11006, Abcam anti-rat antibody, Catalog number ab150117) incubated for 1 h at room temperature. Mouse lungs were fixed in 4% paraformaldehyde overnight at 4° C., embedded in paraffin and sectioned. The lung sections were deparaffinized and stained with hematolxylin/eosin or immunostained using standard protocols. Automated image analysis was performed using the FIJI software package."}}}
{"molecule": "Nc1nc(=O)[nH]cc1F", "note": "[5-FC, 5-fluorocytosine]", "values": [{"measurement": "enrichment of human mRNAs compared to mouse mRNAs", "setting": "[1]", "value": "more than 10^5 fold"}, {"measurement": "immunostaining with anti-BrdU antibody", "setting": "293T cells; 293T cells expressing CD", "value": "stained by the antibody"}, {"measurement": "immunostaining with anti-BrdU antibody", "setting": "293T cells; untransfected control 293T cells", "value": "did not"}]}
